Reference: US20150291597A1, “NOVEL ORALLY BIOAVAILABLE BREATHING CONTROL MODULATING COMPOUNDS, AND METHODS OF USING SAME” (Galleon Pharmaceuticals, Inc., priority 2012, published 2015)
Entries after “also recorded” stand apart in the source; their conditions may differ. Structures can show the parent of a compound that is named as a salt. One block for each molecule: values may come before it.

Columns and labels:
carotid body = test: Carotid sinus nerve transection (CSNTx) in urethane anesthetized rats, minute volume; assay type: in vivo, adult male Sprague Dawley rats
Procedure: The objective of this study was to assess the role of carotid body sinus nerve activity on ventilation, as measured by minute volume, in rats treated with compounds of this invention, such as Compound 5b, versus a saline-treated group. Urethane anesthetized adult male Sprague Dawley rats and tracheal spirometry (pneumotachometry) techniques were used (Example 56). Vehicle (saline) and Compound 5b (0.1 and 0.3 mg/kg) were administered as IV boluses to 5 rats. The carotid sinus nerves were isolated in the neck and transected thereby denervating both carotid bodies. Vehicle and Compound 5b were re-administered IV. Animals were exposed to low inspired O2 (hypoxia) to confirm functionally complete nerve transections. The change in minute volume ΔVE (% of baseline above baseline) in response to saline/Compound 5b before and after carotid body denervation was measured.

[1] = Solubility of the hydrogen sulfate salt in solvents; assay type: physicochemical
rat = test: Minute volume and mean blood pressure in the rat upon oral dosing (plethysmography, telemetry); assay type: in vivo, Male Sprague Dawley rats; conditions: 20 mg/kg PO
Procedure: Compounds were administered orally to rat and evaluated for effects on ventilatory and cardiovascular parameters.
Male Sprague Dawley rats (0.30-0.38 kg, n=4) were surgically implanted with ECG/blood pressure telemeters (Telemetry Research, Inc., Auckland, New Zweland) prior to data collection. The animals were acclimated to plethysmography chambers for a minimum period of 60 minutes. After this time, test compound (20 mg/kg, PO) or vehicle (0.9% saline) was administered by oral gavage. Respiratory and cardiovascular data were collected immediately thereafter for a period of 3 h using plethysmography (Buxco, Inc.) and telemetry (LabChart data acquisition software, AD instruments, Inc.). Each rat received test compound and vehicle during the course of the study and thus each animal served as its own control. Vehicle effects were subtracted from drug response (Drug-Veh) and the difference was reported as a mean percent (%) change over time±SE.

[2] = test system: rats chronically treated with morphine; test: Apnea, sleep architecture and ventilatory response in rats chronically treated with morphine; assay type: in vivo, Adult male lean Zucker rats; conditions: 7 mg/kg PO, versus vehicle
Procedure: The objective of this study was to quantify the effects of select compounds of this invention on apnea, ventilation and sleep structure in a rat model. The study consisted of two treatment conditions: (1) chronic morphine and test compound, such as Compound 5b administered orally (7 mg/kg, PO), and (2) chronic morphine and oral vehicle. Adult male lean Zucker rats were anesthetized for electroencephalogram (EEG) and electromyogram (EMG) telemeter implantation. At least 1 week was permitted post-surgery before animals were used further. Morphine sulfate was added to the drinking water of singly housed rats beginning with 0.1 mg/ml morphine and increasing the concentration in increments so that a final concentration of 0.6 mg/ml was achieved within 2 weeks. All respiratory measurements were made while animals were unrestrained in whole-body plethysmography chambers to permit animals to sleep and move freely. To avoid eliciting withdrawal, morphine water was continuously available during each plethysmography experiment. Minute volume and the number of central sleep apneas (CSA) were measured during all treatment conditions. A period of at least 1 to 1.5 h was permitted for animals to acclimate to the chamber before data collection began. The biopotential telemeters and their receivers were placed directly under the plethysmographic chambers and were used to continuously to capture EEG, EMG, and body temperature signals. Only data collected between the hours of 10 am to 4:30 pm were used in the final analysis to control for the effects of circadian rhythm on breathing.
Compound 5b (7 mg/kg) or an equivalent volume of vehicle was administered via an oral gavage tube at 12 pm. Data collected between 10 am and 12 pm represented baseline (pre-drug) conditions. Data collected between 12 pm and 4:30 pm represented post-drug conditions. Analyses of the EEG and EMG waveforms for the purpose of staging sleep-wake behavior in rats as awake, NREM sleep, and REM sleep were based on previous sleep studies involving rodents. Central apneas were defined as a respiratory cycle period that was more than or equal to twice the average cycle period during baseline recordings, which is consistent with how others have defined central apneas in rodents. Percent time in each sleep-wake state, minute volume, and central sleep apnea counts were compared between treatment groups using a two-way ANOVA (factors: drug treatment and time). Breathing data during wakefulness was not analyzed because movement prevents measurement of accurate volumes when using whole-body plethysmography. When differences were detected with ANOVA, Student-Neuman-Keuls post hoc tests were run for all main effects and interactions. Differences were considered significant when p<0.05. Values are expressed as means±SE.

anesthetized rats = test: Anesthetized rat spirometry screening assay (respiratory rate, tidal volume, minute volume; IV bolus); assay type: in vivo; conditions: 0.3 mg/kg IV bolus
Source text: Anesthetized rats provide a quick method of screening compounds for respiratory and cardiovascular activity. In contrast to the conscious rat model, this model offers an experimental set up with less variation in the baseline cardiovascular and respiratory measures. Compounds screened in this assay may be examined in a conscious rat model.
Rats were initially anesthetized with 3% isoflurane (inhaled) and femoral artery and vein cannulas were surgically inserted. Once cannulated, the rats were transitioned to urethane anesthesia (1.5 g/kg; i.v.) and a tracheal cut-down was performed. After placing the tracheal cannula, it was connected to a pneumotach to record respiratory airflow from which respiratory rate (RR), tidal volume (VT), and their product minute volume were derived. After the surgical preparation was complete, animals were allowed to stabilize for 30 minutes while respiratory rate, tidal volume, minute volume, blood pressure and heart rate were recorded continuously. Arterial blood gases (ABG) were obtained from arterial blood collected from the femoral artery. ABG measurements were taken before and 6 minutes after vehicle and each dose of compound administered. Compounds being screened were administered via bolus injections through the venous cannula followed by a saline flush (total time of administration is approximately 30 seconds), and the animal was monitored for at least 6 minutes for changes in cardiovascular efforts. Compounds were prepared in formulations identified to ensure optimal solubility. As such, vehicle controls were matched for the formulation of each compound tested. Dosing of the compound being screened was 0.1 and 0.3 mg/kg. The next dose was not administered until all cardiovascular and respiratory measures had returned to baseline levels. The positive control compounds used were N-[4,6-di-(n-propylamino)-[1,3,5]triazin-2-yl]-O,N-dimethyl-hydroxylamine or N-[2,6-di-(n-propylamino)-[1,3]pyrimidin-4-yl]-O,N-dimethyl-hydroxylamine, both administered at the end of each screening experiment (0.3 mg/kg dose) to validate the experiment and also to serve as a measure with which the compound being screened could be compared.
Data were analyzed by collecting cardiovascular and respiratory data in 30 second averages (BINs). Data were plotted 2 minutes before challenge and then 6 minutes after challenge.
FIGS. 2A-2F summarize the effects of individual compounds on peak minute ventilation (increase in VE), overall increase in 2 minute area under the curve (AUC) which is a cumulative measure of effect, along with compound stability (half-life) in rat and human microsomes.

[3] = Solubility of cyanuric chloride in various solvents; assay type: physicochemical; conditions: 10 g in 50 mL, sonicated 1 h
Procedure: The solubility of cyanuric chloride was examined as a way to limit its reactivity and the formation of undesired by-products. Cyanuric chloride (10 g) was mixed with 50 mL of indicated solvent (Table 22) and sonicated for 1 h with occasional swirling. If solid material remained as a suspension, it was filtered off and weighed.

melting point: 182 to 184 °C
SMILES: C#CCNc1nc(N(C)OC)c2cc[nH]c2n1.Cl

melting point: 110 to 113 °C
SMILES: C#CCN(OC)c1nc(NCCC)nc(NCCC)n1.Cl

melting point: 105 to 107 °C
SMILES: C#CCON(C)c1nc(NCCC)nc(NCCC)n1.Cl

melting point: 84 to 86 °C
SMILES: C#CCNc1nc(NCCC)nc(N(C)OCC#C)n1.Cl

SMILES: C#CCNc1nc(NCCC)nc(N(C)OC)n1
melting point: 79 to 81 °C

SMILES: C#CCNc1nc(NCCC)nc(N(C)OC)n1.O=C(O)/C=C\C(=O)O
melting point: 123 to 125 °C

SMILES: C#CCNc1nc(NCCC)nc(N(C)OC)n1.O=C(O)CC(=O)O
melting point: 113 to 115 °C

SMILES: C#CCNc1nc(NCCC)nc(N(C)OC)n1.O=C(O)/C=C/C(=O)O
melting point: 153 to 155 °C

melting point: 105 to 107 °C
SMILES: C#CCNc1nc(NC2CCC2)nc(N(C)OC)n1.Cl

SMILES: C#CCNc1nc(NCCC)nc(N(C)OC)n1 [Compound 5b, O,N-Dimethyl-N-[4-(n-propylamino)-6-(prop-2-ynylamino)-[1,3,5]triazin-2-yl]-hydroxylamine hydrogen sulfate]
minute volume prior to carotid body denervation (carotid body; 0.1 and 0.3 mg/kg IV bolus): dose-dependently increased minute volume | ventilatory response after carotid sinus nerve transection (carotid body; 0.1 and 0.3 mg/kg IV bolus): completely abolished the ventilatory response | ventilatory response after SHAM surgery (carotid body; IV bolus): no effect on the ventilatory response | solubility in MeOH ([1]; MeOH): freely soluble | solubility in water ([1]; water): freely soluble | duration of the increase in minute ventilation (rat): 120 min | increase in minute ventilation compared to baseline (rat): approximately 50% | effect on mean blood pressure (rat; during the period of increased ventilation): no significant effect | central apneas during NREM sleep, percent change from baseline (pre-treatment) [2]: percent change (decrease) in apnea frequency was present | NREM minute volume (VE) ([2]; hydrogen sulfate): no statistically significant effects; also recorded: trend for an initial increase in minute volume between 0 to 60 min post-dose; also recorded: no discernible effect | REM minute volume ([2]; hydrogen sulfate): no visible effects | frequency of central apneas during NREM sleep ([2]; hydrogen sulfate): decreased apnea frequency at 120 min and 150 min post-gavage compared to vehicle; also recorded: decreased apnea frequency during NREM sleep compared to vehicle and the pre-treatment (baseline) values; also recorded: significantly reduces | frequency of central apneas during REM sleep ([2]; hydrogen sulfate): did not visibly alter; also recorded: no visible effect; also recorded: does not reduce

SMILES: C#CCNc1nc(NC)nc(NCCC)n1.Cl [Compound 7a, N-Methyl-N′-n-propyl-N″-prop-2-ynyl-[1,3,5]triazine-2,4,6-triamine hydrochloride]
duration of the increase in minute ventilation (anesthetized rats): approximately 2 minutes | increase in minute ventilation above baseline values (anesthetized rats): up to 85% | increase in respiratory rate (anesthetized rats): up to 46% | increase in tidal volume (anesthetized rats): up to 27%

SMILES: C#CCNc1nc(NCCC)nc(N(Cc2ccc(F)cc2)OC)n1 [Compound 9a, N-(4-Fluorobenzyl)-O-methyl-N-[4-(n-propylamino)-6-(prop-2-ynylamino)-[[1,3,5]triazin-2-yl]-hydroxylamine hydrochloride]
duration of the increase in minute ventilation (anesthetized rats): approximately 2 minutes | increase in minute ventilation above baseline values (anesthetized rats): up to 110% | increase in respiratory rate (anesthetized rats): up to 24% | increase in tidal volume (anesthetized rats): up to 72%

melting point: 172 to 174 °C
SMILES: C#CCNc1nc(N)nc(N(C)OC)n1 [Compound 132, N-(4-Amino-6-prop-2-ynylamino-[1,3,5]triazin-2-yl)-O,N-dimethyl-hydroxylamine]

SMILES: Clc1nc(Cl)nc(Cl)n1 [cyanuric chloride]
Solubility of cyanuric chloride ([3]; Acetone, 0 °C): partial crystallization | Solubility of cyanuric chloride ([3]; Acetone, r.t.): soluble | Solubility of cyanuric chloride ([3]; DMAc, 0 °C): soluble | Solubility of cyanuric chloride ([3]; DMAc, r.t.): soluble | Solubility of cyanuric chloride ([3]; DMF, 0 °C): decomposition | Solubility of cyanuric chloride ([3]; DMF, r.t.): decomposition | Solubility of cyanuric chloride ([3]; DMSO, 0 °C): decomposition | Solubility of cyanuric chloride ([3]; DMSO, r.t.): decomposition | Solubility of cyanuric chloride ([3]; Dioxane, 0 °C): soluble | Solubility of cyanuric chloride ([3]; Dioxane, r.t.): soluble | Solubility of cyanuric chloride ([3]; IPA, 0 °C): insoluble | Solubility of cyanuric chloride ([3]; MeCN, 0 °C): insoluble | Solubility of cyanuric chloride ([3]; MeCN, r.t.): 150 µg/mL | Solubility of cyanuric chloride ([3]; THF, 0 °C): soluble | Solubility of cyanuric chloride ([3]; THF, r.t.): soluble | Solubility of cyanuric chloride ([3]; Toluene, 0 °C): soluble | Solubility of cyanuric chloride ([3]; Toluene, r.t.): soluble
